The values below come from patent US20040106545A1, “Compounds and methods for modulating cell adhesion” (priority 1996, published 2004).

Like-named read-outs stand apart in the source and are kept apart here. Positions of bridges follow the written chain, without caps; N, C: chain ends. Residues, ends and D or L forms follow the SMILES beside them. *: point of attachment. For = O=C* Some results are limits rather than exact numbers.

What is called inhibition is the change of the read-out against control, counted positive when it falls. As usually defined, the IC50 is the midpoint of a concentration-inhibition curve.

For series [1], the target named is T1, chick N-cadherin (Gallus gallus, UniProt P10288).
T1 construct: expressed in transfected cells; host or cells: 3T3 fibroblasts (monolayer); rat post-natal day 2-3 cerebellar neurons plated on top
T1 sequence (P10288 165-912): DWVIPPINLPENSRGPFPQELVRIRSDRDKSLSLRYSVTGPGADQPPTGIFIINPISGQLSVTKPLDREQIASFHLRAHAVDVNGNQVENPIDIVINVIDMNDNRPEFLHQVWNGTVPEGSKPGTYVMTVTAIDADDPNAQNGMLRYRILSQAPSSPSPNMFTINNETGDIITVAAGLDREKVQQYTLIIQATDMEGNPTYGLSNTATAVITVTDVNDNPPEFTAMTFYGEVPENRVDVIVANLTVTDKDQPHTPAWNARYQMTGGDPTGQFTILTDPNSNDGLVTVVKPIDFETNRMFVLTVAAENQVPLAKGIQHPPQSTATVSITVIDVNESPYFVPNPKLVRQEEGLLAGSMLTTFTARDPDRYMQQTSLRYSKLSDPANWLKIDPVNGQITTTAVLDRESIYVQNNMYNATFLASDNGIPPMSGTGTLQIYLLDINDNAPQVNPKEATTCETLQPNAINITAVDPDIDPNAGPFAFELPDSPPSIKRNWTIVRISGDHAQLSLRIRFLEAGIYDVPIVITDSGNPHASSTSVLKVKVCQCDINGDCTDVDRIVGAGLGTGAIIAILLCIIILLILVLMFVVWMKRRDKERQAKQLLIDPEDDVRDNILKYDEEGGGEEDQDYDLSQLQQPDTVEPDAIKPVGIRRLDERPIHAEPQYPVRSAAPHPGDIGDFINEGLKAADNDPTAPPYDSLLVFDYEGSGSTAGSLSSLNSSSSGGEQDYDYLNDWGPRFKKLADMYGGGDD
Put plainly: Neurite outgrowth of rat cerebellar neurons on N-cadherin expressing 3T3 monolayers (Example 15). The format is cell-based. Conditions: for inhibition at 250 µg/mL / inhibition of N-cadherin dependent neurite outgrowth (in words): 250 μg/mL; for inhibition at 250 µg/mL / inhibition at 125 µg/mL: 16-18 hours, read-out: % Inhibition of N-Cadherin Dependent Neurite Outgrowth; for inhibition at 125 µg/mL: 125 μg/mL; for inhibitory activity on N-cadherin dependent neurite outgrowth, structure/activity statements: Tables 8 and 9; for activity on N-cadherin dependent neurite outgrowth (in words): 125 micrograms/mL or below; for reduction in inhibitory activity on flanking HAV with E-cadherin amino acids: 250 μg/mL (Table 8). The protocol: Cell culture and neurite outgrowth assays. Co-cultures of cerebellar neurons on monolayers of control 3T3 cells and monolayers of transfected 3T3 cells that express physiological levels of chick N-cadherin or human L1 were established as previously described (Williams et al., Neuron 13:583-594, 1994). In brief, 80,000 3T3 cells (control and transfected) were plated into individual chambers of an eight-chamber tissue culture slide coated with polylysine and fibronectin and cultured in DMEM/10% FCS. After 24 hours, when confluent monolayers had formed, the medium was removed and 3000 cerebellar neurons isolated from post-natal day 2-3 rats were plated into each well in SATO media (Doherty et al., Nature 343:464-466, 1990) supplemented with 2% FCS. All of the test peptides were added immediately before the neurons as a 2× stock prepared in SATO/2% FCS. The co-cultures were maintained for 16-18 hours, at which time they were fixed and immunostained for GAP-43 which is present only in the neurons and delineates the neuritic processes. The mean length of the longest neurite per cell was measured for 150-200 neurons sampled in replicate cultures as previously described (Williams et al., Neuron 13:583-594, 1994). […] Dose-response curves were evaluated and the EC50 values determined.

The test system of series [2] is Madin Darby canine kidney (MDCK) cells. The class given is cell-based. Particulars: for EC50, decrease of electrical resistance across MDCK cell monolayer: 18 hours. The protocol:
Yet another assay evaluates the effect of a modulating agent on the electrical resistance across a monolayer of cells. For example, Madin Darby canine kidney (MDCK) cells can be exposed to the modulating agent dissolved in medium (e.g., at a final concentration of 0.5 mg/ml for a period of 24 hours). The effect on electrical resistance can be measured using standard techniques. This assay evaluates the effect of a modulating agent on tight junction formation in epithelial cells. In general, the presence of 500 μg/mL modulating agent should result in a statistically significant decrease in electrical resistance after 24 hours.
Madin Darby canine kidney (MDCK) cells were plated in Millicells (Millipore, Bedford, Mass.), at a density of 300,000 cells per Millicell, and cultured in Dulbecco's Modified Eagle Medium (DMEM; Sigma, St. Louis, Mo.) containing 5% fetal calf serum (Sigma, St. Louis, Mo.) until monolayers formed. Monolayers were exposed to the modulating agent dissolved in medium. The electrical resistance was measured using the EVOM device (World Precision Instruments, Sarasota, Fla.). At the time of measurement, fresh medium, with or without the modulating agent, may be added to the Millicells.

Series [3] relates to HMVEC. The class given is cell-based, human. Conditions: 3 h. The protocol: (§1) N—Ac-CHAVC-NH2 (SEQ ID NO:10) and the control peptide N—Ac-CHGVC-NH2 (SEQ ID NO:11) were evaluated for possible cytotoxic effects on human microvascular endothelial (HMVEC; Clonetics), human umbilical vein endothelial (HUVEC; ATCC #CRL-1730), IAFp2 (human fibroblast cell line; Institute Armand-Frapier, Montreal, Quebec), WI-38 (human fibroblast cell line; ATCC #CCL-75), MDA-MB231 (human breast cancer cell line; ATCC #HTB-26), and PC-3 (human prostate cancer cell line; ATCC #CRL-1435) cells utilizing the MTT assay (Plumb et al., Cancer Res. 49:4435-4440, 1989). Neither of the peptides was cytotoxic at concentrations up to and including 100 μM. Similarly, neither of the peptides was capable of inhibiting the proliferation of the above cell lines at concentrations up to 100 μM, as judged by ^3H-thymidine incorporation assays.

Series [4] deals with HUVEC. The format is cell-based, human. Particulars: 3 h. The procedure:
as §1

In series [5] the test system is IAFp2. The format is cell-based, human. Particulars: 3 h. The protocol: as §1
The subject of series [6] is MDA-MB231. The format is cell-based, human. Particulars: 3 h. The procedure: as §1
In series [7] the test system is PC-3. The class given is cell-based, human. Conditions: 3 h. The protocol: as §1
The test system of series [8] is WI-38. The class given is cell-based, human. Particulars: 3 h. The protocol:
as §1

In series [9] the test system is MDA-MB231. Put plainly: Cytotoxicity, MTT assay, MDA-MB231. The format is cell-based, human. The protocol: as §1
In general terms: Tetrazolium assays rely on reduction of a dye to a coloured formazan, in cell work by metabolically active cells.

In series [10] the test system is PC-3. The series can be described thus: Cytotoxicity, MTT assay, PC-3. The format is cell-based, human. The procedure:
as §1

In series [11] the target is T2, N-cadherin (Gallus gallus, UniProt P10288).
T2 construct: expressed in transfected cells; host or cells: 3T3 fibroblasts (monolayer)
T2 sequence (P10288 165-912): T1 sequence (P10288 165-912)
Put plainly: Neurite outgrowth inhibition, rat neurons (Example 21). Conditions: 500 μg/mL. The format is cell-based.

Consider `CC(C)[C@@H]1NC(=O)[C@H](C)NC(=O)[C@H](Cc2c[nH]cn2)NC(=O)[C@@H](NS(C)(=O)=O)CSSC[C@@H](C(N)=O)NC1=O` [CH3—SO2—NH—CHAVC—NH2], for which the inhibition at 250 µg/mL in series [1] stood at 74.7 ± 10.5%. In series [2], the “effect on electrical resistance across MDCK cells (in words)” value was “complete loss of activity” and the “EC50, decrease of electrical resistance across MDCK cell monolayer” value (from here on “EC50, decrease”) is listed as “INACTIVE”.
On to `CC(C)[C@@H]1NC(=O)[C@H](C)NC(=O)[C@H](Cc2c[nH]cn2)NC(=O)[C@@H](NC=O)CSSC[C@@H](C(=O)N[C@@H](CO)C(N)=O)NC1=O` [H—C(O)—NH—CHAVCS—NH2] (For-CHAVCS-NH2; disulfide 1-5 (inferred)), for which the inhibition at 250 µg/mL in [1] was 75.8 ± 5.6%.
`CC(=O)N[C@H]1CSSC[C@@H](C(N)=O)NC(=O)[C@H](CC(=O)O)NC(=O)[C@H](C(C)C)NC(=O)CNC(=O)[C@H](Cc2c[nH]cn2)NC(=O)[C@H](C)NC1=O` [N—Ac—CAHGVDC—NH2] (Ac-CAHGVDC-NH2; disulfide 1-7): the concentration for half-maximal inhibition (IC50) in series [3], in series [4], in [5], in series [6], in series [7] and in [8] was more than 100 µM in each case. Further, the concentration for half-maximal inhibition (IC50) in [9] and in series [10] was more than 100 µM each time.
Take `CC(=O)N[C@H]1CSSC[C@@H](C(N)=O)NC(=O)[C@@H]2CCCN2C(=O)[C@H](C(C)C)NC(=O)[C@H](C)NC(=O)[C@H](Cc2c[nH]cn2)NC1=O` [N—Ac—CHAVPC—NH2] (Ac-CHAVPC-NH2; disulfide 1-6): in series [1], the inhibition at 125 µg/mL worked out at 58 ± 4.3% and the “inhibitory activity on N-cadherin dependent neurite outgrowth, structure/activity statements” value is reported as “potent inhibitors”.
For `CC(=O)N[C@H]1CSSC[C@@H](C(N)=O)NC(=O)[C@H](Cc2ccc(O)cc2)NC(=O)[C@H](C(C)C)NC(=O)[C@H](C)NC(=O)[C@H](Cc2c[nH]cn2)NC1=O` [N—Ac—CHAVYC—NH2] (Ac-CHAVYC-NH2; disulfide 1-6), in [1], the inhibition at 125 µg/mL was found to be 64.9 ± 1.9%; the inhibition at 250 µg/mL was 64.9%; the “inhibitory activity on N-cadherin dependent neurite outgrowth, structure/activity statements” value is “potent inhibitors”.
Regarding `CC(=O)N[C@H]1CSSC[C@@H](C(N)=O)NC(=O)[C@H](Cc2c[nH]cn2)NC(=O)CNC(=O)[C@H](C(C)C)NC1=O` [N—Ac—CVGHC—NH2] (Ac-CVGHC-NH2; disulfide 1-5), the 50% inhibitory concentration (IC50) in series [3] is more than 100 µM; in series [4], 30 µM; in [5] it was more than 100 µM; in [6], more than 100 µM; in series [7], more than 100 µM; in [8] it was more than 100 µM. Moreover, the 50% inhibitory concentration (IC50) in [9] and in series [10] was more than 100 µM each time.
For the compound “N—Ac-LRAHAVDING-NH2: linear 10-mer, SEQ ID NO:79 [reference compound]”, the “% inhibition of N-cadherin dependent neurite outgrowth” value in series [1] is 68.8+/−4.1%.
With “N—Ac—CAHAVC—NH2: cyclic peptide, SEQ ID NO:22 (Ac-CAHAVC-NH2; disulfide 1-6 (inferred))”, in series [1], the “inhibition of N-cadherin dependent neurite outgrowth (in words)” value is reported as “potent inhibitors of neurite outgrowth”; the “activity on N-cadherin dependent neurite outgrowth (in words)” value is listed as “lost activity”; the “inhibitory activity on N-cadherin dependent neurite outgrowth, structure/activity statements” value is “little affect”.
As for “N—Ac—CHAVCE—NH2: cyclic peptide, SEQ ID NO:92 (Ac-CHAVCE-NH2; disulfide 1-5 (inferred))”, the “EC50, decrease” value in series [2] is on record as “INACTIVE”.
On to “N—Ac—CHAVDINGC—NH2: cyclic peptide, SEQ ID NO:76 (Ac-CHAVDINGC-NH2; disulfide 1-9 (inferred))”, for which, in [1], the “inhibitory activity on N-cadherin dependent neurite outgrowth, structure/activity statements” value is “completely abrogates activity”.
On to “N—Ac—CHAVSSC—NH2: cyclic peptide, SEQ ID NO:44 (Ac-CHAVSSC-NH2; disulfide 1-7 (inferred))”, for which the “reduction in inhibitory activity on flanking HAV with E-cadherin amino acids” value in series [1] is recorded as “substantial”. The “EC50, decrease” value in series [2] is “INACTIVE”.
As for “N—Ac—CLFSHAVC—NH2 (Ac-CLFSHAVC-NH2; disulfide 1-8 (inferred))”, in series [2], the “effect on electrical resistance across MDCK cells (in words)” value is “loss of activity in this assay” and the “EC50, decrease” value is listed as “INACTIVE”.
As for “N—Ac—CLRAHAVC—NH2: cyclic peptide, SEQ ID NO:30 (Ac-CLRAHAVC-NH2; disulfide 1-8 (inferred))”, the “inhibitory activity on N-cadherin dependent neurite outgrowth, structure/activity statements” value in series [1] is “detrimental affect”.
Regarding “N—Ac—CLRAHAVDC—NH2: cyclic peptide, SEQ ID NO:32 (Ac-CLRAHAVDC-NH2; disulfide 1-9 (inferred))”, in series [1], the “inhibition of N-cadherin dependent neurite outgrowth (in words)” value is “potent inhibitors of neurite outgrowth”; the “activity on N-cadherin dependent neurite outgrowth (in words)” value is recorded as “lost activity”; the “inhibitory activity on N-cadherin dependent neurite outgrowth, structure/activity statements” value was “partial recovery of activity”.
For “N—Ac—CRAHAVDC—NH2: cyclic peptide, SEQ ID NO:28 (Ac-CRAHAVDC-NH2; disulfide 1-8 (inferred))”, the “inhibitory activity on N-cadherin dependent neurite outgrowth, structure/activity statements” value in series [1] is given as “completely eliminated inhibitory activity”. For the same compound, the “inhibition of neurite outgrowth” value in [11] is “(inhibition observed”.
For the compound “N—Ac—CSHAVSC—NH2: cyclic peptide, SEQ ID NO:40 (Ac-CSHAVSC-NH2; disulfide 1-7 (inferred))”, in series [1], the “reduction in inhibitory activity on flanking HAV with E-cadherin amino acids” value is on record as “complete”. Further, the “EC50, decrease” value in series [2] was “INACTIVE”.
